The values below come from paper PMC7305236, “The atypical chemokine receptor ACKR3/CXCR7 is a broad-spectrum scavenger for opioid peptides” (Nature Communications, 2020).

What all share (design): dose or concentration left out as unconfirmed
For one test, the target named is T1, CCR4 (Homo sapiens, UniProt P51679).
T1 construct: expressed in transfected cells
T1 sequence (P51679 1-360): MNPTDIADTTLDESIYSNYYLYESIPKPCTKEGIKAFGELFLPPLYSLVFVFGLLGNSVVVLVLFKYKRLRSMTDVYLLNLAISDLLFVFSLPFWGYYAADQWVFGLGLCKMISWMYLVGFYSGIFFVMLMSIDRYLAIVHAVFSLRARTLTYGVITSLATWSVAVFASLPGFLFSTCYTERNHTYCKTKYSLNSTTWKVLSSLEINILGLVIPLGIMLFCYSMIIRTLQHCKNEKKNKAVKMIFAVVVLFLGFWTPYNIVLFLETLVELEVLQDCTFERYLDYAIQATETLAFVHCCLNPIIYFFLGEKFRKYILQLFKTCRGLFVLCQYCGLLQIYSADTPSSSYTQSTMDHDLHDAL
Kind of test: Figure S2a opioid peptide screen on chemokine receptors. It is filed as cell-based.

The next test addresses T2, CXCR3A (Homo sapiens, UniProt P49682).
T2 construct: expressed in transfected cells; host or cells: U87 cells
T2 sequence (P49682 1-368): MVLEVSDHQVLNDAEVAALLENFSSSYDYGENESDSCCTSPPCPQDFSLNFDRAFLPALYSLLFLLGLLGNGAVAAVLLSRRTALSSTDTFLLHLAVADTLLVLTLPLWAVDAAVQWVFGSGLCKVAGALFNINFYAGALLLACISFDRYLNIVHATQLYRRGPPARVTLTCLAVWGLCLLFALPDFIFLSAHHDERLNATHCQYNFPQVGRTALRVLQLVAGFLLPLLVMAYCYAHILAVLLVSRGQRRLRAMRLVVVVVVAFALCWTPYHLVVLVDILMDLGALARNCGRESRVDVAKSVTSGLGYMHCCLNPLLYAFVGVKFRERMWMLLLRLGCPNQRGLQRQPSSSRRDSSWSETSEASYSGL
Described as above. It counts as cell-based.

A further test addresses T3, CXCR4 (Homo sapiens, UniProt P61073).
T3 construct: expressed in transfected cells; host or cells: U87, transient cotransfection of pNBe vectors
Kind of test: cell-based. The conditions noted are these: Figure S2a, read-out: CXCR4 activity, ctrl+ = 100.

The next test deals with T4, CXCR6 (Homo sapiens, UniProt O00574).
T4 construct: expressed in transfected cells
Kind of test: Figure S2a opioid peptide screen on chemokine receptors. It is filed as cell-based.

A further test concerns the target T5, XCR1 (Homo sapiens, UniProt P46094).
T5 construct: expressed in transfected cells
T5 sequence (P46094 1-333): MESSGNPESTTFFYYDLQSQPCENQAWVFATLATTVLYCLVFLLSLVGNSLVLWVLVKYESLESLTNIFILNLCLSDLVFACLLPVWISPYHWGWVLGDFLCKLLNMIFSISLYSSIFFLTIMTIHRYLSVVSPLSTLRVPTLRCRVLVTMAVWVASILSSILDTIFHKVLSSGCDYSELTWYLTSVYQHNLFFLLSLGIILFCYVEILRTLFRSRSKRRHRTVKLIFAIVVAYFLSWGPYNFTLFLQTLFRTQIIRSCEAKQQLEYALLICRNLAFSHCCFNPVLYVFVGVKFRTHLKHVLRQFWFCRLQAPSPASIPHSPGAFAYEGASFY
The description is as above. It is filed as cell-based.

The target of another test is T6, CCR3 (Homo sapiens, UniProt P51677).
T6 sequence (P51677 1-355): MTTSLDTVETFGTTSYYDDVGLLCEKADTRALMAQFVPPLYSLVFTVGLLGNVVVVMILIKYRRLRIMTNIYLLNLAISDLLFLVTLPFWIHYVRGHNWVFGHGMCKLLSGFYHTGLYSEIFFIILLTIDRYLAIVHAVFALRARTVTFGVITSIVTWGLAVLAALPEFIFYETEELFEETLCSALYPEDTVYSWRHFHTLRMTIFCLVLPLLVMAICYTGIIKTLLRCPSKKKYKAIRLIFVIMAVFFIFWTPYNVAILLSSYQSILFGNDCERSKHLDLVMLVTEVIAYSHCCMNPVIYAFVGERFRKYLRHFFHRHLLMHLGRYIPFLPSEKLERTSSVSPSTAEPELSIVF
The test is described as above. Particulars: read-out: CCR3 activity, ctrl+ = 100, Figure S2a.

The next test addresses T7, ACKR4 (Homo sapiens, UniProt Q9NPB9).
T7 sequence (Q9NPB9 1-350): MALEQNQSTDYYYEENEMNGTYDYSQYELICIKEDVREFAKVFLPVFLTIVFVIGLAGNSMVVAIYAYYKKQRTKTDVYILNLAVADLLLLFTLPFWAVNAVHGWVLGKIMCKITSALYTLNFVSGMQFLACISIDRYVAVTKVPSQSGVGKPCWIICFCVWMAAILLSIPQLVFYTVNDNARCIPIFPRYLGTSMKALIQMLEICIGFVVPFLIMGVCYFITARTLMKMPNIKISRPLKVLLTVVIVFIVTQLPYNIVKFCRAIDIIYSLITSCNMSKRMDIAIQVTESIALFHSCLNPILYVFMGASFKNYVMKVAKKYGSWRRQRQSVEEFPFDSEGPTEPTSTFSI
The description is as above. The conditions noted are these: read-out: ACKR4 activity, ctrl+ = 100, Figure S2a.

The mark [1] stands for this setting: replicate 1, read-out: CCR4 activity, ctrl+ = 100.
Setting [2] is: replicate 2, read-out: CCR4 activity, ctrl+ = 100.
[3] abbreviates: replicate 3, read-out: CCR4 activity, ctrl+ = 100.
Where [4] appears, read: replicate 1, read-out: CXCR3A activity, ctrl+ = 100.
The mark [5] stands for this setting: replicate 2, read-out: CXCR3A activity, ctrl+ = 100.
[6] abbreviates: replicate 3, read-out: CXCR3A activity, ctrl+ = 100.
The mark [7] stands for this setting: replicate 1, read-out: CXCR6 activity, ctrl+ = 100.
Where [8] appears, read: replicate 2, read-out: CXCR6 activity, ctrl+ = 100.
The mark [9] stands for this setting: replicate 3, read-out: CXCR6 activity, ctrl+ = 100.
Where [10] appears, read: replicate 1, read-out: XCR1 activity, ctrl+ = 100.
Where [11] appears, read: replicate 2, read-out: XCR1 activity, ctrl+ = 100.
[12] abbreviates: replicate 3, read-out: XCR1 activity, ctrl+ = 100.

Where two headings read alike, the source gives them in different places. Starred links: 1 amine or outer side, 2 acyl side, 3 side chain; linkers in the order of their positions; H or OH if unused. Non-standard residues stand in square brackets, D forms with d. Residues, ends and D or L forms follow the SMILES beside them. X1 = N[C@@H](Cc1ccccc1)CN(CC(=O)[*:2])[*:1]

T3 sequence (P61073 whole entry): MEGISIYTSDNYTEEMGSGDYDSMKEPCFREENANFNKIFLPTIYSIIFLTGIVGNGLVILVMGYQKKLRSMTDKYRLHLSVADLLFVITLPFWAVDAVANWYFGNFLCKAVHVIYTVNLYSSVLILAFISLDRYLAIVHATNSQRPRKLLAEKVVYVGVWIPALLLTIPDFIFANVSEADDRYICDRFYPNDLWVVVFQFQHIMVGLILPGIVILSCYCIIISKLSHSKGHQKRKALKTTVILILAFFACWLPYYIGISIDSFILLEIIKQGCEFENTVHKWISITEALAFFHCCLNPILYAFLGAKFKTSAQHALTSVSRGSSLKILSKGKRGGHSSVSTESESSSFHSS
T4 sequence (O00574 whole entry): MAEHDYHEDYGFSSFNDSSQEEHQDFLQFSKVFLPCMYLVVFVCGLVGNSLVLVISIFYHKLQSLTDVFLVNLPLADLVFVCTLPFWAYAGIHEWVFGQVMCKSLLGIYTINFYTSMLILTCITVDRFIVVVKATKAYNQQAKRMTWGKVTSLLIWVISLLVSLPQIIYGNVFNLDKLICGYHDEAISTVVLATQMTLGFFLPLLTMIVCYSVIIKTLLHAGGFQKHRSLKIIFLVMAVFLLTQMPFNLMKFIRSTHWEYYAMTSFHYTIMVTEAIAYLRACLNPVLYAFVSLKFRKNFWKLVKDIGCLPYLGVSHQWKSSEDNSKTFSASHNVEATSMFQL

With `CC[C@H](C)[C@H](NC(=O)[C@H](CCCNC(=N)N)NC(=O)[C@H](CCCNC(=N)N)NC(=O)[C@H](CC(C)C)NC(=O)[C@H](Cc1ccccc1)NC(=O)CNC(=O)CNC(=O)[C@@H](N)Cc1ccc(O)cc1)C(=O)N[C@@H](CCCNC(=N)N)C(=O)N1CCC[C@H]1C(=O)N[C@@H](CCCCN)C(=O)N[C@@H](CC(C)C)C(=O)N[C@@H](CCCCN)C(=O)N[C@@H](Cc1c[nH]c2ccccc12)C(=O)N[C@@H](CC(=O)O)C(=O)N[C@@H](CC(N)=O)C(=O)N[C@@H](CCC(N)=O)C(=O)O` [Dynorphin A], the activation on CCR4 (setting [1]) is -3.55%; on CCR4 (setting [2]), 0.0408%; at CCR4 (setting [3]), 5%; at CXCR3A (setting [4]), -4.75%; on CXCR3A (setting [5]), -3.36%; at CXCR3A (setting [6]) it was 7.92%. Also, the activation is -6.67% on CXCR4 (replicate 1); -56.8% at CXCR4 (replicate 2); 36.5% at CXCR4 (replicate 3); -0.0479% at CXCR6 (setting [7]); -0.578% at CXCR6 (setting [8]); 0.283% on CXCR6 (setting [9]). Further, the activation on XCR1 (setting [10]) is 4.69%; on XCR1 (setting [11]), 7.1%; at XCR1 (setting [12]) it was 11%; on CCR3 (replicate 1) it was 33.4%; on CCR3 (replicate 2), -17%; on CCR3 (replicate 3), 43.5%. Also, the values for the activation on ACKR4 (replicate 1), at ACKR4 (replicate 2) and on ACKR4 (replicate 3) were -2.58%, -4.52% and 0.188%, respectively.

For the compound `C[C@H](NC(=O)CNC(=O)[C@@H](NC(=O)[C@H](Cc1ccccc1)NC(=O)CNC(=O)CNC(=O)[C@@H](N)Cc1ccccc1)[C@@H](C)O)C(=O)N[C@@H](CCCNC(=N)N)C(=O)N[C@@H](CCCCN)C(=O)N[C@@H](CO)C(=O)N[C@@H](C)C(=O)N[C@@H](CCCNC(=N)N)C(=O)N[C@@H](CCCCN)C(N)=O` [Nociceptin 1-13], the activation at CCR4 (setting [1]) was -0.0637%; on CCR4 (setting [2]), 0.246%; on CCR4 (setting [3]), 0.411%; at CXCR3A (setting [4]), -0.431%; at CXCR3A (setting [5]), -4.46%; at CXCR3A (setting [6]), -5.38%. Besides, the activation was 20.2% on CXCR4 (replicate 1); -3.76% at CXCR4 (replicate 2); 28.2% on CXCR4 (replicate 3); -0.349% at CXCR6 (setting [7]); -0.882% at CXCR6 (setting [8]); 2.41% on CXCR6 (setting [9]). Also, the activation on XCR1 (setting [10]) worked out at 2.91%; on XCR1 (setting [11]), 3.06%; at XCR1 (setting [12]) it was 4.45%; at CCR3 (replicate 1) it was 6.49%; at CCR3 (replicate 2) it was 6.25%; on CCR3 (replicate 3) it was 14.8%. For the same compound, the activation is -3.36% on ACKR4 (replicate 1), -5.01% at ACKR4 (replicate 2) and 1.05% on ACKR4 (replicate 3).

Turning to `C[C@H](NC(=O)CNC(=O)[C@@H](NC(=O)[C@H](Cc1ccccc1)NC(=O)CNC(=O)CNC[C@@H](N)Cc1ccccc1)[C@@H](C)O)C(=O)N[C@@H](CCCNC(=N)N)C(=O)N[C@@H](CCCCN)C(=O)N[C@@H](CO)C(=O)N[C@@H](C)C(=O)N[C@@H](CCCNC(=N)N)C(=O)N[C@@H](CCCCN)C(N)=O` [FG Nociceptin 1-13] (H-[X1]GFTGARKSARK-NH2), the activation was -0.803% on CCR4 (setting [1]); -1.43% at CCR4 (setting [2]); -2.08% on CCR4 (setting [3]); 2.13% at CXCR3A (setting [4]); -1.45% on CXCR3A (setting [5]); -3.37% on CXCR3A (setting [6]). In addition, the activation at CXCR4 (replicate 1) is 1.4%; at CXCR4 (replicate 2), -4.91%; on CXCR4 (replicate 3), 27.5%; on CXCR6 (setting [7]), -0.041%; on CXCR6 (setting [8]) it was 0.0677%; at CXCR6 (setting [9]), 0.612%. Besides, the activation was determined as 0.7% on XCR1 (setting [10]); 1.1% on XCR1 (setting [11]); 16.8% at XCR1 (setting [12]); 13% on CCR3 (replicate 1); 6.22% on CCR3 (replicate 2); 14.1% on CCR3 (replicate 3). In addition, the activation on ACKR4 (replicate 2) was -0.784%; on ACKR4 (replicate 3), 0.45%.
